Source: ChEMBL document CHEMBL1144280, “Inhibitors of type I MetAPs containing pyridine-2-carboxylic acid thiazol-2-ylamide. Part 1: SAR studies on the determination of the key scaffold” (Bioorg Med Chem Lett, 2005)

Tests used:
[1] = target: T1, Methionine aminopeptidase 1 (Saccharomyces cerevisiae S288c, UniProt Q01662); experiment: Inhibitory concentration against Saccharomyces cerevisiae methionine aminopeptidase 1
T1 sequence (Q01662 whole entry): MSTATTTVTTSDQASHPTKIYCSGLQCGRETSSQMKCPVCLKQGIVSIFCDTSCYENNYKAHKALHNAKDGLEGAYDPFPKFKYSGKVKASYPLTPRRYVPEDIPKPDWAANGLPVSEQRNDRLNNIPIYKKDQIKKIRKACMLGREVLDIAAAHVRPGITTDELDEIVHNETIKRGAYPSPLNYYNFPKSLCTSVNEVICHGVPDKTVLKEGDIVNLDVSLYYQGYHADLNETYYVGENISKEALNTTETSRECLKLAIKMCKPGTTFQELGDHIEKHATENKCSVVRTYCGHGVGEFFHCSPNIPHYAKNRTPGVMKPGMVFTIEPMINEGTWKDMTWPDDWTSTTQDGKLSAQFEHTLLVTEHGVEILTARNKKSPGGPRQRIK

[2] = target: T2, Methionine aminopeptidase (Escherichia coli K-12, UniProt P0AE18); experiment: Inhibitory concentration against Escherichia coli methionine aminopeptidase 1
T2 sequence (P0AE18 whole entry): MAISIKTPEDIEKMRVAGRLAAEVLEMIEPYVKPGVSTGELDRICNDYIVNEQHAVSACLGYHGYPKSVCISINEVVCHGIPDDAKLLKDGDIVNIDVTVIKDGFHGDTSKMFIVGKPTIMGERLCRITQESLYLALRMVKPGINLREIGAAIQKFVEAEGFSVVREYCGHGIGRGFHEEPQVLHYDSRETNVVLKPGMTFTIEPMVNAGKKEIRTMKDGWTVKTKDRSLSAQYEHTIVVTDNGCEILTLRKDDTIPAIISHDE

IC50 [1] | IC50 [2] | Compound
62.9 µM | 12.8 µM | CC(C)(C)OC(=O)Nc1ccc(C(=O)Nc2nccs2)nc1
> 100 µM | 4.51 µM | O=C(Nc1nccs1)c1cc([N+](=O)[O-])ccn1
– | > 100 µM | CC(=O)OCc1cccc(C(=O)Nc2nccs2)n1
> 100 µM | – | COc1ccnc(C(=O)Nc2nccs2)c1
> 100 µM | > 100 µM | O=C(Nc1nccs1)c1cc(OCc2ccccc2)ccn1
> 100 µM | > 100 µM | CCCCc1ccc(C(=O)Nc2nccs2)nc1
17 µM | 1.98 µM | CC(=O)Nc1ccnc(C(=O)Nc2nccs2)c1
> 100 µM | 2.32 µM | O=C(Nc1nccs1)c1cc(NCc2ccccc2)ccn1
> 100 µM | > 100 µM | O=C(Nc1nccs1)c1cccc(C(=O)Nc2nccs2)n1
> 100 µM | 6.71 µM | Nc1ccnc(C(=O)Nc2nccs2)c1
2.43 µM | 2.09 µM | Nc1ccc(C(=O)Nc2nccs2)nc1
0.77 µM | 1.41 µM | O=C(Nc1nccs1)c1ncccc1OCc1ccccc1
> 100 µM | > 100 µM | CC(C)=CCc1ccc(C(=O)Nc2nccs2)nc1
> 100 µM | > 100 µM | O=C(Nc1nccs1)c1cc(Cl)ccn1
